Experimental findings from patent EP0420914B1, “COSMETIC AND SKIN TREATMENT COMPOSITIONS” (PROCYTE CORPORATION, priority 1988, dated 1994) are described below.

In experiment [1] the test system is dermis, epidermis and subcutis. The experiment can be described thus: Histological thickness of dermis, epidermis and subcutis in mice after topical creams. It is filed as in vivo, Swiss-Webster female mice. The conditions noted are these: creams on days 0, 1, 3, 4 and 5, placebo had returned to naive control level. Here is the method: Skin from 31 Swiss-Webster female mice (average age - 18 months) was evaluated histologically for evidence of changes in skin architecture following several applications of placebo- and peptide-containing cream formulations. Measurements were made of dermal, epidermal and subcutis thickness using an eyepiece micrometer at 100X power.
The mice had hair removed by a close clipping, and were treated on days 0, 1, 3, 4 and 5 with either glycyl-L-histidyl-L-lysine:copper(II), or representative derivatives glycyl-(3-methyl)-L-histidyl-L-lysine: copper(II) and glycyl-L-histidyl-L-lysyl-L-valyl-L-phenylalanyl-L-valine: copper(II), or a placebo cream (n = 5/group). Biopsies were performed on individual animals from the groups on days 6, 10, 12 and 14. In addition, eleven naive mice were biopsied on day 0.

Another experiment has as its system human epidermis. The experiment can be described thus: Epidermal cell turnover rate by clearance of dansyl chloride. It is filed as in vivo. Conditions: seven female subjects; daily topical cream, upper inner arm; compared with the corresponding untreated site. Here is the method: The rate of cell turnover is determined by the number of days for clearance of dansyl chloride from stained stratum. Seven female subjects were used in the study, with an average age of 50.4 (± 3.8) years. Each subject was treated with 3% dansyl chloride in petrolatum on four sites on the upper inner arms. One site on each arm served as an untreated control and the other site as the treated site. Sites were randomized by computer as to left or right and as to proximal or distal areas of the upper arm. Twenty-four hours after occlusion, the sites were uncovered and photographed under ultraviolet light for fluorescence of the dansyl chloride. This photograph was designated as day 1. Photographs were made over the next four weeks until all subjects had completed the study, as determined by the final disappearance of the dansyl dye. The sites were then treated daily with a topical cream containing a representative composition, glycyl-(3-methyl)-L-histidyl-L-lysine:copper(II) or a control cream. The number of days for the total disappearance of the dansyl dye from the cream-treated sites was compared with the corresponding untreated site.

A further experiment has as its system pig skin. The experiment is described as follows: Collagen content and angiogenic activity of pig skin biopsies after topical cream. It is filed as in vivo. Here is the method: In a typical experiment, a young pig was treated topically with a cream containing glycyl-(3-methyl)-L-histidyl-L-lysine:copper(II) or a placebo cream once a day for 12 days. Punch biopsies (6 mm dia.) were taken on day 0 and day 12. The biopsies were analyzed for total wet weight, alkaline phosphatase, total protein, and hydroxyproline content. Alkaline phosphatase is an enzyme marker for capillary endothelial cells and is an indicator of new angiogenesis. The hydroxyproline is a component of collagen, and increased hydroxyproline content indicates increased collagen content. The punch biopsies were prepared for biochemical analysis, basically by the method of Counts et al. (D. Counts, P. Knighten and G. Hegreberg, J. Invest. Derm. 69:521-26, 1977).
In a first experiment, an increase in alkaline phosphatase activity and hydroxyproline content was detected on day 12 in the biopsies taken from skin treated with glycyl-(3-methyl)-L-histidyl-L-lysine:copper(II) relative to the placebo-treated area.
The results obtained in a second experiment are graphically illustrated in Figure 4. In this experiment, biopsies were taken from the pig on days 0, 10 and 13 and analyzed for alkaline phosphatase activity.

The subject of another experiment is dermis. The experiment can be described thus: Ultrasound evaluation of dermal density after topical cream on the forearm. It counts as in vivo, human. Conditions: 10 women; cream twice daily for three weeks, volar forearm; score 0 no change to 3 marked change; p = 0.029 versus placebo cream. The protocol: The effect of a representative composition, glycyl-(-3-methyl-L-histidyl-L-lysine:copper(II)(active agent), on the epidermis and dermis was evaluated by ultrasound. Ultrasound technique uses high-frequency sound, at 20 megahertz, to produce an echo signal of the skin. This signal is processed to produce a diagrammatic representation of the skin that is related to the structures of the skin by the strength of the reflected signal.
The topical cream containing glycyl-(3-methyl)-L-histidyl-L-lysine:copper(II) or a control cream was applied twice daily for three weeks to the volar surface of the forearms of 10 female subjects with an average age of 31.7 years, using both the right and left sides in a random fashion for each cream. Subjects were evaluated by ultrasound scans at days 1, 7, 14 and 21.
The dermal density after treatment as measured by ultrasound was evaluated on a scoring system whereby no change = 0, a slight change = 1, a moderate change = 2, and a marked change = 3. In 10 women treated with the cream-plus-active-agent, the average density score was 1.7, while the average score of the placebo-cream-only was 0.7. This difference was significant at a probability of p = 0.029.

The test system of a further experiment is subcutaneous fat layer. The experiment is described as follows: Formation of the subcutaneous fat layer after a single injection in mice (histology). Conditions: for subcutaneous fat layer at the area of injection: histology of the injected area. It counts as in vivo. Here is the method: A single dose of 50 micrograms of glycyl-L-histidyl-L-lysine n-octyl ester:Cu(II) was infiltrated under the skin in eight mice.
In another series of experiments, mice were injected once with glycyl-L-histidyl-L-lysine octyl ester:copper(II) at a dose of 500 micrograms per mouse.
This increase in subcutaneous fat is shown by taking a biopsy sample at day 21 through the area and sectioning for histology slides. […] The injected area is on the right with the adjacent uninjected area on the left of the photograph.
A group of ten mice were injected once with glycyl-L-histidyl-L-lysine decyl ester:copper(II) at a dose of 500 micrograms per mouse. Microscopic examination provided evidence of increased fat cell layer in the area surrounding the injection site.
A group of ten mice were injected once with glycyl-L-histidyl-L-lysine palmityl ester:copper(II) at a dose of 500 micrograms per mouse. Histological sections through the area of injection were similar to those described in Example VI.

A further experiment has as its system skin. The experiment is described as follows: Topical ointment on human skin, single-subject case reports. It counts as in vivo. Conditions: person. Here is the method:
A person had skin covered by a sprinkled pattern of fine reddish spots of microhemorrhages beneath an irritated skin surface.
A person had skin covered with a scaly eczema-like surface.
A person with hair loss and numerous pigmented spots ("aging spots") was treated for 14 days on the top of their head with an ointment (consisting of 94% Unibase and 6% dimethysulfoxide) containing 4 milligrams of GHL-Cu octyl per gram.
A person had irritated skin with numerous pimples.

The mark [2] stands for this setting: topical cream once a day for 12 days, 6 mm punch biopsy, day 12.
Setting [3] is: injected once, 500 micrograms per mouse.

As to “glycyl-(3-methyl)-L-histidyl-L-lysine:copper(II)”, the “epidermal thickness by day 14” value in experiment [1] is “maintained an increased epidermal thickness”. Besides, the “increase of average skin turnover rate” value in the experiment with human epidermis is 30.0%. In addition, in the experiment on pig skin (biopsies on days 0, 10 and 13, relative to placebo cream-treated areas), the “alkaline phosphatase activity, second experiment (Figure 4)” value was “increased alkaline phosphatase”. In addition, in the experiment with pig skin (setting [2]), the “Angiogenic Activity (as alkaline phosphatase)” value is on record as 0.013 ± 0.001 inc A405/min/mg and the “Collagen Content (as hydroxyproline)” value stood at 5.8 ± 0.2 µg/biopsy. For the same substance, in the experiment with dermis, the “average density score (dermal density by ultrasound)” value amounted to 1.7.

In the case of “glycyl-L-histidyl-L-lysine decyl ester:copper(II)”, the “subcutaneous fat layer at the area of injection” value with subcutaneous fat layer (setting [3]) is “marked increase in the subcutaneous fat layer”.

For the substance “glycyl-L-histidyl-L-lysine n-octyl ester:copper(II)”, the “number and size of the fat cells” value in the experiment on subcutaneous fat layer (injected once, 500 micrograms per mouse, biopsy at day 21) is “increase in both the number and size of the fat cells”. The “increase in the subcutaneous fat layer in the skin near the injection site (fold)” value with subcutaneous fat layer (injected once, 500 micrograms per mouse, biopsy at day 21, versus adjacent uninjected area) is reported as “approximately threefold”. The “subcutaneous fat layer at the area of injection” value in the experiment with subcutaneous fat layer (setting [3]) is “significant increase in the thickness of the subcutaneous fat layer”. The “amounts of subcutaneous fat” value in the experiment with subcutaneous fat layer (single dose of 50 micrograms infiltrated under the skin, eight mice) is on record as “Increased amounts of subcutaneous fat were observed”. Besides, the “softness and thickness of the skin covering the head” value in the experiment on skin (treated 14 days on top of head) is “noticeably softer to the touch and possessed a greater thickness”. In addition, the “number of aging spots” value in the experiment with skin (treated 14 days on top of head, 4 milligrams per gram in 94% Unibase and 6% dimethysulfoxide, thirty days after start) is reported as “marked reduction in the number of aging spots”. In the experiment with skin (treated 14 days, thirty days after start), the “size of the remaining aging spots” value was “reduction in the size of the remaining spots”.

“glycyl-L-histidyl-L-lysine palmityl ester:copper(II)”: the “subcutaneous fat layer at the area of injection” value in the experiment on subcutaneous fat layer (setting [3]) is recorded as “increase in the subcutaneous fat layer”.

Turning to “glycyl-L-histidyl-L-lysine: copper(II) [GHL-Cu]”, the “reddish spots of microhemorrhages” value in the experiment on skin (once daily for 9 days, 4 mg GHL-Cu per gram) was “complete clearing of the reddish spots”.

In the case of “glycyl-L-histidyl-L-lysyl-L-valyl-L-phenylalanyl-L-valine: copper(II)”, the “epidermal thickness by day 14” value in experiment [1] is recorded as “maintained an increased epidermal thickness”.
